Measurements taken from patent US20260166040A1 (AMGEN INC., priority 2022, published 2026).

Assays:
[1] = Phase I crossover study: safety and tolerability (treatment-emergent adverse events); type: in vivo, human; settings: for Treatment-emergent adverse events: healthy subjects; for Safety and tolerability: healthy male and female subjects
[2] = test system: plasma proteins, mostly albumin; settings: reversible, independent of plasma concentrations; cited from earlier work
[3] = incidence !2%; cited from earlier work
[4] = clinical; settings: human, in vivo, 10 mg
Procedure: On Day 1, rosuvastatin was administered as a single 10 mg dose (1×10 mg tablet).
All subjects fasted overnight (at least 10 hours) and refrained from consuming water for 1 hour prior to dosing. Subjects refrained from consuming water until 2 hours postdose, excluding the amount of water consumed at dosing, and fasted until 4 hours postdose. At all other times during the study, subjects may have consumed water ad libitum.
Blood samples for determination of rosuvastatin plasma concentrations and PK parameters were collected at hour 0 and at hours 0.5, 1, 2, 3, 4, 5, 6, 8, 10, 12, 24, 36, 48, 72, 96, and 120 hours postdose following administration of rosuvastatin on Days 1 and 6.
Pharmacokinetic analysis was carried out using actual dose administered (mg) and actual postdose blood sampling times. When an actual time was not recorded, it was set to missing and excluded from PK analysis and statistics with sponsor approval.
The parameters Cmax, time of the last quantifiable plasma concentration (tlast), and tmax were obtained directly from the concentration-time profiles. For multiple peaks, the highest postdose concentration was reported as Cmax. In the case that multiple peaks were of equal magnitude, the earliest tmax was reported.

[5] = cited from earlier work
[6] = Phase I crossover study: plasma pharmacokinetics of sotorasib coadministered with rosuvastatin; type: in vivo, human; settings: 960 mg sotorasib + 10 mg rosuvastatin, (range)
Procedure: Times of all PK samples were recorded to the nearest minute.

[7] = molecular target: T1, BCRP transporter (Homo sapiens, UniProt Q9UNQ0); assay: In vitro BCRP transporter inhibition; type: in vitro ADME
T1 sequence (Q9UNQ0 1-655): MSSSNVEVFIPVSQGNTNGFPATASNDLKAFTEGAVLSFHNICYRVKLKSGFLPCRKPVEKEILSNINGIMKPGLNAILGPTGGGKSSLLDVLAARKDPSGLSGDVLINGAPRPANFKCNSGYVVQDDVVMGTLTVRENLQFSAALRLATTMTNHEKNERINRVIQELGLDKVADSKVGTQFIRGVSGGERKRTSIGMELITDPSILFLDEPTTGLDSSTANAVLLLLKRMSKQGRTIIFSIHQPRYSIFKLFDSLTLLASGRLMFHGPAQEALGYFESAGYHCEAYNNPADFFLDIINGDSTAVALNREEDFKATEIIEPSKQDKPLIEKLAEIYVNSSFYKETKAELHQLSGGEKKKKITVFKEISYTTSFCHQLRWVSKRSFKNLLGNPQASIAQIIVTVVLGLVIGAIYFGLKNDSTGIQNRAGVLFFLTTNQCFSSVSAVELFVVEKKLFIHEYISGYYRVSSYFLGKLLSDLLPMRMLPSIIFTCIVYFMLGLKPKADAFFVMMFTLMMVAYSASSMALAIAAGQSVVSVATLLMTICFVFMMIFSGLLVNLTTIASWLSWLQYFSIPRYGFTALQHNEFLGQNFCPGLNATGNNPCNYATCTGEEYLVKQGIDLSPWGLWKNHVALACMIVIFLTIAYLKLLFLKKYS

[8] = test system: phosphorylation of extracellular signal-regulated kinase (ERK); settings: preclinical studies; cited from earlier work

SMILES: CC(C)c1nc(N(C)S(C)(=O)=O)nc(-c2ccc(F)cc2)c1/C=C/[C@@H](O)C[C@@H](O)CC(=O)O [rosuvastatin]
- Treatment-emergent adverse events ([1]; 10 mg rosuvastatin alone): No treatment-emergent adverse events
- Safety and tolerability ([1]; single oral dose rosuvastatin 10 mg alone): safe and well tolerated
- Bound to plasma proteins [2]: 88%
- Most commonly reported adverse reactions [3]: headache, myalgia, abdominal pain, asthenia, and nausea
- AUCinf ([4]; both): 36.2 (60.1) h*ng/mL
- AUCinf GLSM ([4]; both): 36.2 ng·h/mL
- AUClast GLSM ([4]; both): 33.2 ng·h/mL
- Cmax ([4]; both): 3.80 (57.8) ng/mL
- Cmax GLSM ([4]; both): 3.80 ng/mL
- half-life ([4]; both): 13.8 h
- tmax ([4]; both): 3 h
- AUC(0-t) ([4]; both, po): 33.2 ng·h/mL
- CL/F [4]: 276 (60.1) L/h
- Elimination half-life ([5]; human, in vivo): approximately 19 hours
- Excreted in the feces (rosuvastatin and its metabolites) ([5]; human, in vivo): 90%
- Radiolabeled dose recovered as metabolite ([5]; human, in vivo): approximately 10%
- Cmax and AUC dose dependence ([5]; oral administration): increased in approximate proportion to dose
- Absolute bioavailability ([5]; oral): approximately 20%

SMILES: C=CC(=O)N1CCN(c2nc(=O)n(-c3c(C)ccnc3C(C)C)c3nc(-c4c(O)cccc4F)c(F)cc23)[C@@H](C)C1 (atropisomer, axis not shown) [sotorasib]
- Treatment-emergent adverse events ([1]; 960 mg sotorasib coadministered with 10 mg rosuvastatin): No treatment-emergent adverse events
- Safety and tolerability ([1]; rosuvastatin 10 mg in combination with sotorasib 960 mg, single oral doses): safe and well tolerated
- tlast [6]: 48.0 (24.0-48.0) h
- BCRP inhibition [7]: inhibitor of BCRP transporter in vitro
- Inhibition of ERK phosphorylation [8]: inhibited nearly all detectable phosphorylation
